Measured values taken from PMC4770311, “Discovery and Characterization of GSK2801, a Selective Chemical Probe for the Bromodomains BAZ2A and BAZ2B” (Journal of Medicinal Chemistry, 2015).

Legend:
BRD9 [1] = biological target: T1, BRD9 (Homo sapiens, UniProt Q9H8M2); test: Isothermal titration calorimetry BRD9; type: binding; settings: ITC
T1 construct: ITC experiments using the bromodomain of BRD9
Experimental: VP-ITC (MicroCal) at 15 °C.
reaction cell containing the inhibitors (15 µM). Integrated heat of the titrations after corrected
modifications from the manufacturers protocol (PerkinElmer, USA). Briefly, all reagents were
final) were then added under low light conditions. Plates were foil sealed to protect from […]

[2] = system: panel of biotin-labeled bromodomains; settings: two concentrations, 0.2 and 1.0 μM
Experimental: measurements were taken over a 12 point 1:2 serial dilution of compound. IC50s were calculated in GraphPad Prism 5 (GraphPad Software, USA).
Biolayer interference assays. BAZ2A and BAZ2B were expressed in frame with a C- […]
of a single biotin using the biotin ligase (BirA) which has been co-expressed in E. coli using the co-expression vector BL21(DE3)-R3-pRARE2-BirA. Cells were grown in the presence of 0.1 mM biotin and were lysed and purified using a similar procedure as described for the non-biotin labelled protein.
The biotin labelled BAZ2B and BAZ2A was immobilized on SuperStreptavidin BLI sensors.
BioLayer Interferometry (BLI) experiments were performed on a 16-channel ForteBio Octet […]
buffer. The reference sensors without attached bromodomain were used to subtract background binding to SuperStreptavidin sensors. Data were processed and analysed using ForteBio Analysis software.
Determination of PK profiles for GSK2801 after IP (intraperitoneal) and PO (oral) administrations to male CD-1 mice: These PK studies were performed by the DMPK […]
The IP and PO dosing solutions were prepared in 0.5%
Test system: CD-1 mice, 28-32g, male, N=18, purchased from SLAC Laboratory Animal Co.
LTD. The animals were given free access to food and water. A dose of 30 mg/kg (10 mL/kg) was used via intraperitoneal injection (N=9) and for oral dosing 30 mg/kg (10 mL/kg) via gavage (N=9). […]

BRD9 [3] = biological target: T2, BRD9 (Homo sapiens, UniProt Q9H8M2); test: Chemoproteomic competition binding assay, endogenous BRD9; settings: HuT78 extracts; competition with affinity matrix
T2 construct: endogenous in cells; host or cells: HuT78
T2 sequence (Q9H8M2 1-597): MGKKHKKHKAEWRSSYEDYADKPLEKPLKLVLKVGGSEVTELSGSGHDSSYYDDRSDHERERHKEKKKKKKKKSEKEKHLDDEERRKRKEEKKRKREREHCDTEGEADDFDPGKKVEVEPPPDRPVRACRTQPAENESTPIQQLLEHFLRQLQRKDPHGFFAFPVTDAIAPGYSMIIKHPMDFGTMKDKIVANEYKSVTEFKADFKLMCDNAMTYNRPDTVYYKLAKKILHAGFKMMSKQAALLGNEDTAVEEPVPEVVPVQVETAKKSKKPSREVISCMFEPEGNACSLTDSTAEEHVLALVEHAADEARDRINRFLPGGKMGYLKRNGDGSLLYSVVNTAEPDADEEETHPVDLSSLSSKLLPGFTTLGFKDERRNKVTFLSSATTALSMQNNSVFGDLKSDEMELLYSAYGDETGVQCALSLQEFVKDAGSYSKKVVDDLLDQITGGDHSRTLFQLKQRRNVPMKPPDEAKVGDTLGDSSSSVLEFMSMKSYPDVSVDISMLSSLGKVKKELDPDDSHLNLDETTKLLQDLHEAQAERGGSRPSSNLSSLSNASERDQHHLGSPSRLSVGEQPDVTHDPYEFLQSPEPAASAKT

BAZ2A [4] = biological target: BAZ2A (Homo sapiens, UniProt Q9UIF9); test: Chemoproteomic competition binding assay, endogenous BAZ2A; settings: up to a concentration of 50 μM; HuT78 extracts
Target sequence in this assay (Q9UIF9 whole entry): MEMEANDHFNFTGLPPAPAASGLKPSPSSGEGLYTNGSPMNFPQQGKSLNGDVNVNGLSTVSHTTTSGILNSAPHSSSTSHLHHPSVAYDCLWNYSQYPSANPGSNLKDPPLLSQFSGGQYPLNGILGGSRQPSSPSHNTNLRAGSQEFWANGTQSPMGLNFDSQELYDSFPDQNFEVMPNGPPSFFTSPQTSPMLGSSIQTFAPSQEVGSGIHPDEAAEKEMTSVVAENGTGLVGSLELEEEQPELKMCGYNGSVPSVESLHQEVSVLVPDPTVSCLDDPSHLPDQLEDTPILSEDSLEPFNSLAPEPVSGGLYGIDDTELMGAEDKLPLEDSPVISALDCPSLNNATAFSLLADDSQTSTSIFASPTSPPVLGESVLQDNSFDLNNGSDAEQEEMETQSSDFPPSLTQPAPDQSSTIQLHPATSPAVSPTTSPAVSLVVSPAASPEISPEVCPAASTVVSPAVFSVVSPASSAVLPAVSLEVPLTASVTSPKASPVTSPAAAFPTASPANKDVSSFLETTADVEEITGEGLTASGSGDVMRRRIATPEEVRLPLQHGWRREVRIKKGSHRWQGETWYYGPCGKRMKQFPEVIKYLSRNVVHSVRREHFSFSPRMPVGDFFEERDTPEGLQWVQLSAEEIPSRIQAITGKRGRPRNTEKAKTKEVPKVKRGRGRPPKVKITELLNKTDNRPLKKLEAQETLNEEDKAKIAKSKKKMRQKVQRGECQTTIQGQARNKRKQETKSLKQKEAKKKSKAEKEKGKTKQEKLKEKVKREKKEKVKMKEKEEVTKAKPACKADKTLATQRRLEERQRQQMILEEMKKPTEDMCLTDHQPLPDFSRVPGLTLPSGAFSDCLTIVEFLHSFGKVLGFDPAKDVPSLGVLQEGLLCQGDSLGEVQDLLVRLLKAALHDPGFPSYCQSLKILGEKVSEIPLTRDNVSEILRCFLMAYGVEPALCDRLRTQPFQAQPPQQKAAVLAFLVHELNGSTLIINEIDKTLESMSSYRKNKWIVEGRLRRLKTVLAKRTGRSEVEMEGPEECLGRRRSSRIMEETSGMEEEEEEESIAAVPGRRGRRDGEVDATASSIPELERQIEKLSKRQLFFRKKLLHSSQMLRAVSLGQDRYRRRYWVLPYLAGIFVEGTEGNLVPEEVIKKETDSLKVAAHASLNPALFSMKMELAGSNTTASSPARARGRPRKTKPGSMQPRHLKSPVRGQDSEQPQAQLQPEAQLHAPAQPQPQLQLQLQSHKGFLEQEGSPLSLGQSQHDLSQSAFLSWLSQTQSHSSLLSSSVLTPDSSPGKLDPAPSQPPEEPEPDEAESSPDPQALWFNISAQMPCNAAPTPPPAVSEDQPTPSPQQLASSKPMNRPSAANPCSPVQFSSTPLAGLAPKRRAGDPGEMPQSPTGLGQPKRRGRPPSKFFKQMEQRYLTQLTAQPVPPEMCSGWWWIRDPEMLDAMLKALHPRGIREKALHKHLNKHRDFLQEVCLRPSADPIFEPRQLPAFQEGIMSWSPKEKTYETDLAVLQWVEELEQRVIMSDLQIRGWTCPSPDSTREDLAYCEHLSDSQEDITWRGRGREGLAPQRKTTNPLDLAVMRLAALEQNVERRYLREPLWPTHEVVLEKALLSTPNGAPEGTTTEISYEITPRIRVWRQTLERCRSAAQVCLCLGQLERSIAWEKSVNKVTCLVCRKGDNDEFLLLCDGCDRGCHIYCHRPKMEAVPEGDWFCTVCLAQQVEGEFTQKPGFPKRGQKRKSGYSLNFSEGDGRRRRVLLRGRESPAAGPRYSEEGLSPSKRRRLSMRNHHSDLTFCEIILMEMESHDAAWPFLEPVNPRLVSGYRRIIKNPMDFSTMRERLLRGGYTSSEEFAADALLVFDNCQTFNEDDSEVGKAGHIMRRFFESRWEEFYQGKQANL

BAZ2B = BAZ2B (Homo sapiens, UniProt Q9UIF8); test: Chemoproteomic competition binding assay, endogenous BAZ2B; settings: up to a concentration of 50 μM; HuT78 extracts
BAZ2B, sequence (Q9UIF8 whole entry): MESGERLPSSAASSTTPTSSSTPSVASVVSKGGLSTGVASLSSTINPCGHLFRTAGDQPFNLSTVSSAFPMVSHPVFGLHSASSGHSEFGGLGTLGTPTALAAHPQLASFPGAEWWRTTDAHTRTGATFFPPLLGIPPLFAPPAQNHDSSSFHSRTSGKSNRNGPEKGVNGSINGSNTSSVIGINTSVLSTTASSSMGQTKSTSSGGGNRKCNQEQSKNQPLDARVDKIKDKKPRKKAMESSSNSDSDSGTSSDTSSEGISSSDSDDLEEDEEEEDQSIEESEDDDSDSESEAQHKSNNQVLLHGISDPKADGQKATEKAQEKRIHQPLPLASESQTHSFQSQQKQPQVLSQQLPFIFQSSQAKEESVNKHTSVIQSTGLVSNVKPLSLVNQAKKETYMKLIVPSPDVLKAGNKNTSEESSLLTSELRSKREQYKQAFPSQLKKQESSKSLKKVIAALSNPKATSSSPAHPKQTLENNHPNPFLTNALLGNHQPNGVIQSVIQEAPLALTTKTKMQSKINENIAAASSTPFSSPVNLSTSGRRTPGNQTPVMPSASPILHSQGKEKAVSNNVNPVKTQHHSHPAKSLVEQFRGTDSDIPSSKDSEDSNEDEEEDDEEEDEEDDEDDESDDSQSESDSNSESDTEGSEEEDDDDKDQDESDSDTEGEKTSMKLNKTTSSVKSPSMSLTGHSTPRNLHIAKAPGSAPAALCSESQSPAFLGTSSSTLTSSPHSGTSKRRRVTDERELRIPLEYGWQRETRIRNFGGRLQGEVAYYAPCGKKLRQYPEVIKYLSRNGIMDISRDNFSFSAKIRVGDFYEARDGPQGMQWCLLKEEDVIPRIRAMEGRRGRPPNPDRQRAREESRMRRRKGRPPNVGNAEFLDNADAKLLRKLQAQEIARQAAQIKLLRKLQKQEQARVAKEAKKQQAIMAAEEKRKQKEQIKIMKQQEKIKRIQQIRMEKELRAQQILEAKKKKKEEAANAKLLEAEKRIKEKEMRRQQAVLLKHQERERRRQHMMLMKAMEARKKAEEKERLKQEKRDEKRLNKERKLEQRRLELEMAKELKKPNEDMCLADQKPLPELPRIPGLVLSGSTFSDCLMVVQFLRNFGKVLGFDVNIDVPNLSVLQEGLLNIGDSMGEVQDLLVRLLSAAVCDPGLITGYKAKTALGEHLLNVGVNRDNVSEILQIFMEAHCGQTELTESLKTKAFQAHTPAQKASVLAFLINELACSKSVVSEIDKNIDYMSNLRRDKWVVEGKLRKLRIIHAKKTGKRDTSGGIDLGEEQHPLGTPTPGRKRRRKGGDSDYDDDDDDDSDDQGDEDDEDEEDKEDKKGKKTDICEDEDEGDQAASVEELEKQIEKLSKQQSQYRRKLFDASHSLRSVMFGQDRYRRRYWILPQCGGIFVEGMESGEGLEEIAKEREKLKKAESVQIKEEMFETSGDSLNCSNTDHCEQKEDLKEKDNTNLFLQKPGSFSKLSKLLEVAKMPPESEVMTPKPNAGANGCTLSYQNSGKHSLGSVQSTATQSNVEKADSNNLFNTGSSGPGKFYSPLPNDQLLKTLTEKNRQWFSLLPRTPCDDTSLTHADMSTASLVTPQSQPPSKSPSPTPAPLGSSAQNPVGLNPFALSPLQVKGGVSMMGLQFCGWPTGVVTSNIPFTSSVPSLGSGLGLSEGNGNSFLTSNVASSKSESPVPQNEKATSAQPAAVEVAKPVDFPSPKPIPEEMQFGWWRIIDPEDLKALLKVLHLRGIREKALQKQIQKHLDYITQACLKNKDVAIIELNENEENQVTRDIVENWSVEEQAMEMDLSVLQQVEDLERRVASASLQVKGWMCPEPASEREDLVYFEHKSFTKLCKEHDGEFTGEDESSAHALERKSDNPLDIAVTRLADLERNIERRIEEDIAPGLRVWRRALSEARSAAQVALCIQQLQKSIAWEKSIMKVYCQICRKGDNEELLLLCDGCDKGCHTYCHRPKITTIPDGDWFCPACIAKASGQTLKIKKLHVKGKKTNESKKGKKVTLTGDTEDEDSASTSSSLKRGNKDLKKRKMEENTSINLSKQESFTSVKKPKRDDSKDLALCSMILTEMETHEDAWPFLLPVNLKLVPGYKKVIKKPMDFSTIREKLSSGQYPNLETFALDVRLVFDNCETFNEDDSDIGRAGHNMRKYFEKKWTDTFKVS

SMARCA2 and 4 = test: Chemoproteomic competition binding assay, endogenous SMARCA2 and 4; settings: HuT78 extracts; likely indirect via BRD9 in BAF complex
BAZ2A [5] = biological target: T3, BAZ2A (Homo sapiens, UniProt Q9UIF9); test: AlphaScreen assay BAZ2A; type: binding; settings: average of three replicates ± SEM
T3 construct: Recombinant BAZ2A and BAZ2B bromodomains were expressed in; made in house; host or cells: E. coli
T3 sequence (Q9UIF9 1793-1897 limits assumed): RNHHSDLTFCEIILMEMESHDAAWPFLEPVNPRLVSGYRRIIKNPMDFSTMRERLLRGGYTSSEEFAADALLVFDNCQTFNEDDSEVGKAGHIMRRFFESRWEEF
Experimental: AlphaScreen: AlphaScreen was performed as described previously 10, with minor modifications from the manufacturers protocol (PerkinElmer, USA). Briefly, all reagents were diluted in the recommended buffer (50 mM HEPES, 100 mM NaCl, 0.1% BSA; pH = 7.4) supplemented with 0.05% CHAPS and allowed to equilibrate to room temperature prior to […]
Plates were sealed and incubated at room temperature for 30 min. 4 μL of streptavidin-coated donor beads (10ug/mL final) and 4 μL of nickel chelate acceptor beads (10 μg/ml final) were then added under low light conditions. Plates were foil sealed to protect from light, incubated at room temperature for 60 min and read on a PHERAstar FS plate reader (BMG Labtech, Germany) using an AlphaScreen 680 excitation/570 emission filter set.
Fragments were dissolved in ethylene glycol to overcome sensitivity of the bromodomain assay to DMSO and allow compounds to be screened at mM concentrations. IC50 […]
measurements were taken over a 12 point 1:2 serial dilution of compound. IC50s were calculated in GraphPad Prism 5 (GraphPad Software, USA). […]

BRD2 = system: BRD2; set-up: method as in PMID 21804994, PMID 22136404; settings: reported activity; read-out: TR-FRET assay: BRD2; cited from earlier work
BRD4 = system: BRD4; set-up: method as in PMID 21804994, PMID 22136404; settings: reported activity; read-out: TR-FRET assay: BRD4; cited from earlier work

CCCOc1ccn2c(C(C)=O)cc(-c3cccc(OC)c3)c2c1 [Compound 23, 1-(1-(3-Methoxyphenyl)-7-propoxyindolizin-3-yl)ethanone]
Kd (BRD9 [1]): 1040 nM | binding enthalpy change ΔH BRD9 (BRD9 [1]): −8.98 (± 0.152) kcal/mol | selectivity in BLI bromodomain panel [2]: inactive against BAZ2A/B and all other bromodomains except BRD9 | pKd BRD9 (BRD9 [3]): 4.5 | binding to endogenous BAZ2A (BAZ2A [4]): did not show any binding | binding to endogenous BAZ2B (BAZ2B): did not show any binding | pKd SMARCA2 and 4 (SMARCA2 and 4): 4.8

CC(=O)c1cc(-c2ccccn2)c2ccccn12 [Compound 1]
IC50 (BAZ2A [5]): 1500 ± 60 nM | IC50 (BRD2): 2000 nM | IC50 (BRD4): 2000 nM
